Test results as given in article PMC10747202, “Computational and Experimental Drug Repurposing of FDA-Approved Compounds Targeting the Cannabinoid Receptor CB1” (Pharmaceuticals, 2023).

Experiments:
Conditions in all cases: read-out: % displacement at 10 μM
[1] = target: T1, cannabinoid receptor 1 (CB1R) (Mus musculus, UniProt P47746); experiment: [3H]CP55, […] competition radioligand binding, mouse brain membranes, […] (positive control)
T1 construct: gene Cnr1; native receptor in mouse brain membranes

[2] = target: T1, cannabinoid receptor 1 (CB1R); experiment: [3H]CP55, […] competition radioligand binding, mouse brain membranes, […] (weak)
[3] = target: T1, cannabinoid receptor 1 (CB1R); experiment: [3H]CP55, […] competition radioligand binding, mouse brain membranes, […]

T1 sequence (P47746 whole entry): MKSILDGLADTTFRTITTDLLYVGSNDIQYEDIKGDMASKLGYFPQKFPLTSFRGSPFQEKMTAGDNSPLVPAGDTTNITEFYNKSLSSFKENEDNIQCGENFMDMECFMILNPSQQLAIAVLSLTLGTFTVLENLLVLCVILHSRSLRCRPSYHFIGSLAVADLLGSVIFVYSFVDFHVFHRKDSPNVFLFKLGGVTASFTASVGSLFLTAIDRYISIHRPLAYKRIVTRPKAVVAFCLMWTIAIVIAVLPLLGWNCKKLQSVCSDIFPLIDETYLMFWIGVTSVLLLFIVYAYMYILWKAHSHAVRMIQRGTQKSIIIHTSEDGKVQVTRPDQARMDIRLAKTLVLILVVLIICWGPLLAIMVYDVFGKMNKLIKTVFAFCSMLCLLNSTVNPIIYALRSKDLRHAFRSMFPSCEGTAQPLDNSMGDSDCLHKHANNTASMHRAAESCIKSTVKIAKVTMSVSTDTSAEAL

Structure (SMILES) | inhibition at 10 µM [2] | inhibition at 10 µM [3] | further results
O=C(c1ccc(OCCN2CCCCC2)cc1)c1c(-c2ccc(O)cc2)sc2cc(O)ccc12 [Raloxifene] |  |  | inhibition at 10 µM [1]: > 50%
CCCCC(=O)N(Cc1ccc(-c2ccccc2-c2nnn[nH]2)cc1)[C@H](C(=O)O)C(C)C [Valsartan] | ~30% |  | 
COC(=O)N(C)c1c(N)nc(-c2nn(Cc3ccccc3F)c3ncccc23)nc1N [Riociguat] | ~20% |  | 
Cc1nnc(C(=O)NC(C)(C)c2nc(C(=O)NCc3ccc(F)cc3)c(O)c(=O)n2C)o1 [Raltegravir] |  | ~80% | 
COc1ccc(CN=c2[nH]c(N3CCC[C@H]3CO)ncc2C(=O)NCc2ncccn2)cc1Cl [Avanafil] | ~30% |  | 
CCCCCCCCCCCCCCCCOP(=O)([O-])OCC[N+](C)(C)C [Miltefosine] |  | ~60% | 
Nc1nc(N)c2nc(CNc3ccc(C(=O)N[C@@H](CCC(=O)O)C(=O)O)cc3)cnc2n1 [APGA, Aminopterin] | ~30% |  | 
CN(Cc1cnc2nc(N)nc(N)c2n1)c1ccc(C(=O)N[C@@H](CCC(=O)O)C(=O)O)cc1 [Methotrexate] |  | ~50% | 
